Source: US20240174618A1, “SUBSTITUTED (2-HETEROARYLOXYPHENYL)SULFONATES, SALTS THEREOF AND THEIR USE AS HERBICIDAL AGENTS” (Bayer Aktiengesellschaft, priority 2021, published 2024)

Assays:
Type in all cases: in vivo
Kochia scoparia (KCHSC) = test: E. Herbicidal post-emergence efficacy, KCHSC
Protocol: Seeds of monocotyledonous and dicotyledonous weeds and crop plants were placed in sandy loam in plastic or organic planting pots, covered with soil and cultivated in a greenhouse under controlled growth conditions. 2 to 3 weeks after sowing, the test plants were treated at the one-leaf stage. The compounds of the invention, formulated in the form of wettable powders (WP) or as emulsion concentrates (EC), were then sprayed onto the green parts of the plants as aqueous suspension or emulsion with addition of 0.5% additive at a water application rate of 600 l/ha (converted). After the test plants had been kept in the greenhouse under optimum growth conditions for about 3 weeks, the activity of the preparations was rated visually in comparison to untreated controls.
For example, • 100% efficacy=plants have died, • 0% action=like untreated control plants.
Tables E1a to E12b below show the effects of selected compounds of the general formula (I) according to table 1 on various harmful plants at an application rate corresponding to 320 g/ha or less, which were obtained by the experimental procedure mentioned above.

Viola tricolor (VIOTR) = test: C. Herbicidal pre-emergence efficacy, VIOTR
Method in brief: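 Pre-emergence test: formulated compounds sprayed as aqueous suspension or emulsion with 0.5% additive at 600 l/ha onto soil covering sown seeds, at rates corresponding to 320 g/ha or less. After about 3 weeks in greenhouse, efficacy scored visually as percent versus untreated controls (100% = plants dead).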

[1] = test system: Abutilon theophrasti (ABUTH); test: A. Herbicidal pre-emergence efficacy, ABUTH; settings: scored visually after about 3 weeks vs untreated controls
Method in brief: (§1)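 Pre-emergence soil-surface spray in sandy loam pots, WP/EC in water plus 0.5% additive, 600 L/ha. Visual % damage rating after about 3 weeks in greenhouse vs. untreated; 0% = control-like, 100% = dead plants. Rates up to 1280 g/ha.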

[2] = test system: Matricaria inodora (MATIN); test: A. Herbicidal pre-emergence efficacy, MATIN
Method in brief: as §1

Setaria viridis (SETVI) = test: E. Herbicidal post-emergence efficacy, SETVI
Method in brief: (§2)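 Greenhouse post-emergence spray, one-leaf stage (2–3 wk after sowing, sandy loam); WP/EC formulation, aqueous + 0.5% additive, 600 l/ha water; rates 320 g/ha or less. Visual rating ~3 wk later vs untreated; 0% = control-like, 100% = dead.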

[3] = test system: Digitaria sanguinalis (DIGSA); test: A. Herbicidal pre-emergence efficacy, DIGSA; settings: scored visually after about 3 weeks vs untreated controls
Method in brief: as §1

[4] = test system: Polygonum convolvulus (POLCO); test: E. Herbicidal post-emergence efficacy, POLCO
Method in brief: as §2

[5] = test system: Echinochloa crus-galli (ECHCG); test: B. Herbicidal post-emergence efficacy, ECHCG; settings: rated visually after about 3 weeks
Method in brief: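 First, seeds were sown in sandy loam and grown 2 to 3 weeks under controlled greenhouse conditions. Next, foliage at the one-leaf stage received the formulated compound in water with 0.5% additive (600 L/ha, 1280 g/ha or less). Finally, damage was rated visually after about 3 weeks against untreated plants.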

[6] = 320 g/ha, scored visually after about 3 weeks vs untreated controls
[7] = pre-emergence, dosage 1280 g/ha

O=S(=O)(CCC(F)(F)F)Oc1c(F)cccc1Oc1ncc(Br)cn1 [Example I-40]
100%: Post-emergence efficacy against KCHSC in % (Kochia scoparia (KCHSC); application rate 80 g/ha) | Post-emergence efficacy against KCHSC in % (Kochia scoparia (KCHSC); application rate 320 g/ha) | Pre-emergence efficacy against VIOTR in % (Viola tricolor (VIOTR); application rate 80 g/ha) | Pre-emergence efficacy against VIOTR in % (Viola tricolor (VIOTR); application rate 320 g/ha) | Pre-emergence efficacy against ABUTH ([1]; 80 g/ha) | Pre-emergence efficacy against ABUTH ([1]; 320 g/ha) | Pre-emergence efficacy against ABUTH ([1]; 1280 g/ha) | Pre-emergence efficacy against MATIN [2, 6] | Pre-emergence efficacy against MATIN [2, 7] | Post-emergence efficacy against SETVI in % (Setaria viridis (SETVI); application rate 80 g/ha) | Post-emergence efficacy against SETVI in % (Setaria viridis (SETVI); application rate 320 g/ha) | Pre-emergence efficacy against DIGSA ([3]; 80 g/ha) | Pre-emergence efficacy against DIGSA ([3]; 320 g/ha) | Pre-emergence efficacy against DIGSA ([3]; 1280 g/ha) | Post-emergence efficacy against POLCO in % ([4]; application rate 80 g/ha) | Post-emergence efficacy against POLCO in % ([4]; application rate 320 g/ha)

O=S(=O)(CCCC(F)(F)F)Oc1c(F)cccc1Oc1ncc(Br)cn1 [Example I-41]
100%: Post-emergence efficacy against KCHSC in % (Kochia scoparia (KCHSC); application rate 80 g/ha) | Post-emergence efficacy against KCHSC in % (Kochia scoparia (KCHSC); application rate 320 g/ha) | Pre-emergence efficacy against VIOTR in % (Viola tricolor (VIOTR); application rate 80 g/ha) | Pre-emergence efficacy against VIOTR in % (Viola tricolor (VIOTR); application rate 320 g/ha) | Pre-emergence efficacy against ABUTH ([1]; 320 g/ha) | Pre-emergence efficacy against ABUTH ([1]; 1280 g/ha) | Pre-emergence efficacy against MATIN [2, 6] | Pre-emergence efficacy against MATIN [2, 7] | Post-emergence efficacy against SETVI in % (Setaria viridis (SETVI); application rate 80 g/ha) | Post-emergence efficacy against SETVI in % (Setaria viridis (SETVI); application rate 320 g/ha) | Pre-emergence efficacy against DIGSA ([3]; 80 g/ha) | Pre-emergence efficacy against DIGSA ([3]; 320 g/ha) | Pre-emergence efficacy against DIGSA ([3]; 1280 g/ha) | Post-emergence efficacy against POLCO in % ([4]; application rate 80 g/ha) | Post-emergence efficacy against POLCO in % ([4]; application rate 320 g/ha)

O=S(=O)(CCC(F)(F)F)Oc1c(Br)cccc1Oc1ncc(F)cn1 [Example I-43]
90%: Post-emergence efficacy against KCHSC in % (Kochia scoparia (KCHSC); application rate 80 g/ha) | Post-emergence efficacy against ECHCG in % ([5]; 320 g/ha) | Post-emergence efficacy against ECHCG in % ([5]; 1280 g/ha) | Pre-emergence efficacy against VIOTR in % (Viola tricolor (VIOTR); application rate 80 g/ha) | Pre-emergence efficacy against MATIN [2, 7] | Post-emergence efficacy against POLCO in % ([4]; application rate 320 g/ha)
100%: Post-emergence efficacy against KCHSC in % (Kochia scoparia (KCHSC); application rate 320 g/ha) | Pre-emergence efficacy against VIOTR in % (Viola tricolor (VIOTR); application rate 320 g/ha) | Pre-emergence efficacy against ABUTH ([1]; 320 g/ha) | Pre-emergence efficacy against ABUTH ([1]; 1280 g/ha) | Pre-emergence efficacy against DIGSA ([3]; 320 g/ha) | Pre-emergence efficacy against DIGSA ([3]; 1280 g/ha)

O=S(=O)(CCC1CC1)Oc1c(F)cccc1Oc1ncc(Cl)cn1 [Example I-55]
100%: Pre-emergence efficacy against VIOTR in % (Viola tricolor (VIOTR); application rate 320 g/ha) | Pre-emergence efficacy against ABUTH ([1]; 1280 g/ha) | Pre-emergence efficacy against DIGSA ([3]; 80 g/ha) | Pre-emergence efficacy against DIGSA ([3]; 320 g/ha) | Pre-emergence efficacy against DIGSA ([3]; 1280 g/ha) | Post-emergence efficacy against POLCO in % ([4]; application rate 320 g/ha)
90%: Post-emergence efficacy against KCHSC in % (Kochia scoparia (KCHSC); application rate 320 g/ha) | Post-emergence efficacy against ECHCG in % ([5]; 320 g/ha) | Post-emergence efficacy against ECHCG in % ([5]; 1280 g/ha) | Post-emergence efficacy against SETVI in % (Setaria viridis (SETVI); application rate 320 g/ha) | Post-emergence efficacy against POLCO in % ([4]; application rate 80 g/ha)
80%: Post-emergence efficacy against KCHSC in % (Kochia scoparia (KCHSC); application rate 80 g/ha) | Post-emergence efficacy against SETVI in % (Setaria viridis (SETVI); application rate 80 g/ha)

O=S(=O)(CCC(F)=C(F)F)Oc1c(F)cccc1Oc1ncc(Cl)cn1 [Example I-70]
100%: Post-emergence efficacy against KCHSC in % (Kochia scoparia (KCHSC); application rate 320 g/ha) | Pre-emergence efficacy against VIOTR in % (Viola tricolor (VIOTR); application rate 80 g/ha) | Pre-emergence efficacy against VIOTR in % (Viola tricolor (VIOTR); application rate 320 g/ha) | Post-emergence efficacy against SETVI in % (Setaria viridis (SETVI); application rate 80 g/ha) | Post-emergence efficacy against SETVI in % (Setaria viridis (SETVI); application rate 320 g/ha) | Post-emergence efficacy against POLCO in % ([4]; application rate 320 g/ha)
90%: Post-emergence efficacy against KCHSC in % (Kochia scoparia (KCHSC); application rate 80 g/ha)

O=S(=O)(CCC(F)=C(F)F)Oc1c(Cl)cccc1Oc1ncc(Cl)cn1 [Example I-73]
90%: Post-emergence efficacy against KCHSC in % (Kochia scoparia (KCHSC); application rate 80 g/ha) | Post-emergence efficacy against KCHSC in % (Kochia scoparia (KCHSC); application rate 320 g/ha) | Post-emergence efficacy against ECHCG in % ([5]; 320 g/ha) | Pre-emergence efficacy against ABUTH ([1]; 1280 g/ha) | Pre-emergence efficacy against DIGSA ([3]; 320 g/ha)
100%: Post-emergence efficacy against ECHCG in % ([5]; 1280 g/ha) | Pre-emergence efficacy against VIOTR in % (Viola tricolor (VIOTR); application rate 320 g/ha) | Pre-emergence efficacy against DIGSA ([3]; 1280 g/ha)

Cc1cccc(Oc2ncc(Cl)cn2)c1OS(=O)(=O)CC1CC(F)(F)C1 [Example I-74]
80%: Post-emergence efficacy against KCHSC in % (Kochia scoparia (KCHSC); application rate 320 g/ha)
90%: Pre-emergence efficacy against ABUTH ([1]; 1280 g/ha) | Post-emergence efficacy against SETVI in % (Setaria viridis (SETVI); application rate 320 g/ha)
100%: Post-emergence efficacy against ECHCG in % ([5]; 320 g/ha) | Post-emergence efficacy against ECHCG in % ([5]; 1280 g/ha) | Pre-emergence efficacy against VIOTR in % (Viola tricolor (VIOTR); application rate 80 g/ha) | Pre-emergence efficacy against VIOTR in % (Viola tricolor (VIOTR); application rate 320 g/ha) | Pre-emergence efficacy against DIGSA ([3]; 320 g/ha) | Pre-emergence efficacy against DIGSA ([3]; 1280 g/ha)

N#Cc1cccc(Oc2ncc(Cl)cn2)c1OS(=O)(=O)CCCC(F)(F)F [Example I-81]
90%: Post-emergence efficacy against POLCO in % ([4]; application rate 80 g/ha)
100%: Post-emergence efficacy against KCHSC in % (Kochia scoparia (KCHSC); application rate 80 g/ha) | Post-emergence efficacy against KCHSC in % (Kochia scoparia (KCHSC); application rate 320 g/ha) | Pre-emergence efficacy against VIOTR in % (Viola tricolor (VIOTR); application rate 80 g/ha) | Pre-emergence efficacy against VIOTR in % (Viola tricolor (VIOTR); application rate 320 g/ha) | Post-emergence efficacy against SETVI in % (Setaria viridis (SETVI); application rate 320 g/ha) | Post-emergence efficacy against POLCO in % ([4]; application rate 320 g/ha)
